According to patent publication US20240246994A1, “Polymorph Of Imidazolidinone Compound, Preparation Method Therefor And Use Thereof” (Betta Pharmaceuticals Co., Ltd., priority 2021, published 2024):

Legend:
[1] = target: PI3Kβ (Homo sapiens, UniProt P42338); test: PI3Kβ kinase assay (ADP-Glo, luminescence); type: biochemical; settings: final ATP concentration 10 μM; read-out: IC50 of Compound PI3K β
Description: (§1) PI3Kα, PI3Kβ, PI3Kγ kinases were enzymatically reacted with their substrates ATP and PIP2:3PS, and the amount of the reaction products were determined to reflect the enzymatic activities of PI3Kα, PI3Kβ, PI3Kγ using ADP-Glo reagent and luminescence method (final ATP concentration of 10 μM). The inhibitory activities of Compound 1 of the present invention on PI3Kα, PI3Kβ and PI3Kγ kinases were tested using the above method.
(§2) Reagents: basic kinase buffer (pH 7.5); PI3Kα, PI3Kβ, PI3Kγ enzyme solutions; solution of PIP2:3PS and ATP; and ADP-Glo kit (containing 10 mM of MgCl2).
(§3) Among them, the buffer components are: 50 mM of Hepes (pH 7.2 to pH 7.5), 3 mM of MgCl2, 1 mM of EGTA, 0.03% of CHAPS, 100 mM of NaCl, and 2 mM of DTT;
(§4) Preparation of compound: Compound 1 of the present application was completely dissolved in DMSO and diluted to a specific concentration so that the final concentration of the compound in the incubation system was 1000 nM, 333 nM, 111 nM, 37 nM, 12.4 nM, 4.1 nM, 1.4 nM, 0.46 nM, 0.15 nM and 0.05 nM (PI3Kα); 30,000 nM, 10,000 nM, 3333 nM, 1111 nM, 370 nM, 123 nM, 41 nM, 13.7 nM, 4.6 nM and 1.5 nM (PI3Kβ, PI3Kγ). […]

[2] = target: PI3Kγ (Homo sapiens, UniProt P48736); test: PI3Kγ kinase assay (ADP-Glo, luminescence); type: biochemical; settings: final ATP concentration 10 μM; read-out: IC50 of Compound PI3K γ
Sequence of PI3Kγ (P48736 whole entry): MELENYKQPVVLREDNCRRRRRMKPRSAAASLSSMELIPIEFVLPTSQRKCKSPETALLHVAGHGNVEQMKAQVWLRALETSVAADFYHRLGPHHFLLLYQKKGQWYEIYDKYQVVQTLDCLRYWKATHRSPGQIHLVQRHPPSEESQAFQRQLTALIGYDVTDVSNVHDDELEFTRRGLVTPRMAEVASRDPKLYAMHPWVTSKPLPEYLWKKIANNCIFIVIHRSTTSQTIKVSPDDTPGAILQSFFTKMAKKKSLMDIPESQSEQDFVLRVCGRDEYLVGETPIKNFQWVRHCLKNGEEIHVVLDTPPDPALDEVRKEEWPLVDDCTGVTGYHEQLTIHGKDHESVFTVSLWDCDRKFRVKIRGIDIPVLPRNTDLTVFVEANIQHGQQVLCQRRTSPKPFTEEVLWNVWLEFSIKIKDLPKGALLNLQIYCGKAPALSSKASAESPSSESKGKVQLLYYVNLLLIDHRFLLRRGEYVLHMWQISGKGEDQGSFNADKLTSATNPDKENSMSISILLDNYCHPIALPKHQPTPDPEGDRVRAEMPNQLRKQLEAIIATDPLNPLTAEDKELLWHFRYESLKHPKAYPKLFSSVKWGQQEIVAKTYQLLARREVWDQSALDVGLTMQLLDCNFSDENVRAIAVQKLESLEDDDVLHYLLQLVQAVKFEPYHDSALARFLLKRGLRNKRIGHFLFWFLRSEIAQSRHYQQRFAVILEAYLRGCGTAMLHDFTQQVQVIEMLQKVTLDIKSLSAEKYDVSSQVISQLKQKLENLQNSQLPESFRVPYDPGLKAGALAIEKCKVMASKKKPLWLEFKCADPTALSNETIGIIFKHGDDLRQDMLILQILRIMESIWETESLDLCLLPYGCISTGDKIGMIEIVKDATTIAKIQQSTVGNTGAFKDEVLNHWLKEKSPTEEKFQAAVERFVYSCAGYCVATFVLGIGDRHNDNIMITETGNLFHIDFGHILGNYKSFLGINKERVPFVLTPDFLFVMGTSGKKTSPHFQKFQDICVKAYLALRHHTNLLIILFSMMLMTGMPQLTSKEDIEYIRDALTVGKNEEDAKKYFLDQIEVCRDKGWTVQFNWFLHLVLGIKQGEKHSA
Description: as §1, §2, §3, §4

[3] = target: PI3Kα (Homo sapiens, UniProt P42336); test: PI3Kα kinase assay (ADP-Glo, luminescence); type: biochemical; settings: final ATP concentration 10 μM; read-out: IC50 of Compound PI3K α
Sequence of PI3Kα (P42336 whole entry): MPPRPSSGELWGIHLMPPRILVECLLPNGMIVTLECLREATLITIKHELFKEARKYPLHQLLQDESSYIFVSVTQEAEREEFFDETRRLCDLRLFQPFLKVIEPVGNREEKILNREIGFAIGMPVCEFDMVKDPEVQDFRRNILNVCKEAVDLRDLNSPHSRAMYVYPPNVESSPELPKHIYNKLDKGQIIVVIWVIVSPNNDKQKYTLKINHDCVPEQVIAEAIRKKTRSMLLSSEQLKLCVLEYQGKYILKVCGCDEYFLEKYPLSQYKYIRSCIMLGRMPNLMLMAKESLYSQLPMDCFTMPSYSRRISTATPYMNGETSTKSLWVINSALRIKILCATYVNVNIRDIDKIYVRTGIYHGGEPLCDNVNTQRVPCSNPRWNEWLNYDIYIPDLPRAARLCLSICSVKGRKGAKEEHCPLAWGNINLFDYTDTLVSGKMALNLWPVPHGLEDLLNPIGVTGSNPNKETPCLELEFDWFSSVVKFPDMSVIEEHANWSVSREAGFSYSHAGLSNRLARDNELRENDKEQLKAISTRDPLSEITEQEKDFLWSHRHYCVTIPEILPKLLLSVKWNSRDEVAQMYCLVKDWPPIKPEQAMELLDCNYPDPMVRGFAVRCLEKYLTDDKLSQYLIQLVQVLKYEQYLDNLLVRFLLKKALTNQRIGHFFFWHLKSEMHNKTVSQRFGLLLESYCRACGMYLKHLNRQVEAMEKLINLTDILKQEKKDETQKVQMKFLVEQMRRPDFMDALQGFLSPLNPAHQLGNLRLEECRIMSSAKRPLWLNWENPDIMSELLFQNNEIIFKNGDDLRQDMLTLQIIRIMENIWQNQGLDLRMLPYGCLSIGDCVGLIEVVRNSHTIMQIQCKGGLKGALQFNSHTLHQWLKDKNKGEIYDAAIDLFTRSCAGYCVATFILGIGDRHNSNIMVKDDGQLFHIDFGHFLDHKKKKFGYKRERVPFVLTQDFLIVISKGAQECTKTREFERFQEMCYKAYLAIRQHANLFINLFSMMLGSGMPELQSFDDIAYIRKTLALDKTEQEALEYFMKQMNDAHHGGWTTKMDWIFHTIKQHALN
Sequence of PI3Kα (P27986 whole entry partner): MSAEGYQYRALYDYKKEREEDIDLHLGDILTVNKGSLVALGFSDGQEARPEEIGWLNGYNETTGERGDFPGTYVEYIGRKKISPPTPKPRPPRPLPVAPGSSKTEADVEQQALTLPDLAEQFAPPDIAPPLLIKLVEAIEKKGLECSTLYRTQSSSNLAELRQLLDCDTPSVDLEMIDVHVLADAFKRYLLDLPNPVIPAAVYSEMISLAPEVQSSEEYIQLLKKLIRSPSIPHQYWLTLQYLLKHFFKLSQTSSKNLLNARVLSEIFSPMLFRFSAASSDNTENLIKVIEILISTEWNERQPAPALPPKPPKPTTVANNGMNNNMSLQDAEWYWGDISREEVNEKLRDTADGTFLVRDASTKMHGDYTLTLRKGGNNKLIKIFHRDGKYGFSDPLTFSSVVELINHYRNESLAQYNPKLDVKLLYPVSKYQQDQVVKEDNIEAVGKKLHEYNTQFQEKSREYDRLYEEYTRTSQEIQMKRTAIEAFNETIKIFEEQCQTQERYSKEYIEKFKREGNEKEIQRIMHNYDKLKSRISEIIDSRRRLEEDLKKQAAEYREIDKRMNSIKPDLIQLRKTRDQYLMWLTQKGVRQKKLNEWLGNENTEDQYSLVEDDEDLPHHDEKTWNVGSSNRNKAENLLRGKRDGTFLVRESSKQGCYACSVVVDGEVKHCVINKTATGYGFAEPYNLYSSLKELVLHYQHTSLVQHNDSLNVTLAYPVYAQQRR
Description: as §1, §2, §3, §4

[4] = system: MCF-7 cells; test: Cell proliferation assay (CellTiter Glo), MCF-7; type: cell-based; settings: Homo sapiens, MCF7; 120 h incubation; read-out: IC50 of compounds on MCF-7 cells
Description: Method: CellTiter Glo assay method was used to observe the growth inhibitory effect of Compound 1 of the present application on human tumor cells MCF-7 and HGC-27 cultured in vitro.
Assay method: MCF-7 cells were suspended in DMEM medium to form a cell suspension, and the cell concentration was adjusted to 25,000 cells/mL. HGC-27 cells were suspended in RPMI-1640 medium to form a cell suspension, and the cell concentration was adjusted to 5,000 cells/mL. 100 μL of cell suspension was added to a 96-well plate and placed in a CO2 incubator overnight. Compound 1 was completely dissolved in DMSO and 3-fold gradient dilution was performed to obtain a total of 10 concentrations. The 10 concentrations of the compounds to be tested or the DMSO negative control were transferred to the wells containing 100 μL of medium to give final concentrations of the compounds of 30,000 nM, 10,000 nM, 3,333 nM, 1,111 nM, 370 nM, 123 nM, 41 nM, 13.7 nM, and 4.6 nM, respectively. Incubation was performed at 37° C. under 5% CO2 for 96 h for HGC-27 cells and 120 h for MCF-7 cells. Then 100 μL of CellTiter-Glo reagent was added to the above 96-well plate and placed at room temperature for 10 min to stabilize the luminescence signal. The RLU (relative luminescence unit) value was recorded using a VICTOR™ X5 instrument, and then the IC50 value was calculated. […]

[5] = Stress testing (influencing factors), total impurity content; type: physicochemical
[6] = Grinding sensitivity assay (XRPD); type: physicochemical; settings: manual grinding in a mortar, 1 min
[7] = Pressure sensitivity assay (tabletting, XRPD); type: physicochemical; settings: pressure 200, 300 and 500 kg/cm^2, 3 min
[8] = DVS assay; type: physicochemical; settings: 80% RH, 25° C.
Description: A Surface Measurement Systems Dynamic Vapor Sorption Analyzer (model of DVS Resolution) was used with an N2 flow rate: 200 sccm, detection temperature: 25° C., equilibrium time range: 5 min to 360 min, RH gradient: 10% (50% RH to 90% RH, 90% RH to 0% RH to 90% RH), and 5% (90% RH to 95% RH, 95% RH to 90% RH) to obtain dynamic vapor sorption analysis pattern.

[9] = Stability test of crystal form C (influencing factor, accelerated, long-term); type: physicochemical
Source text: The conditions and methods for the stability test of crystal form C of Compound 1 are mainly based on the requirements of “9001 Guidelines for Stability Test of APIs and Pharmaceutical Preparations” of the fourth part general rules of the 2020 edition of the Chinese Pharmacopoeia, as shown in Table 4. [table]

[10] = Pharmacokinetic assay in rats, single gavage; type: in vivo; settings: rat, plasma, po, male SD rats, 10 mg/kg
Description: Medicament preparation: the control compound, crystal form M of Compound 1 and amorphous form of Compound 2 obtained in Example 1 were weighed and prepared into a 10 mg/mL of solution to be tested in a mixture of 10% of DMSO, 10% of Solutol and 80% of saline; crystal form C of Compound 1 was added into a mixture of 5% of solutol and 95% of 0.5% CMCNa to prepare a 10 mg/mL of solution to be tested.
Assay method: 15 male SD rats with weights: 150 g to 300 g were randomly divided into 5 groups of 3 rats each, and […] of the Example compound was administered by single gavage. The blood was collected through the orbital venous plexus at the designated time points (5 min, 15 min, 30 min, 1 h, 2 h, 4 h, 7 h and 24 h) respectively, and the plasma was separated and stored in a refrigerator at −80° C. for spare use. After precipitation of proteins from the above plasma samples by acetonitrile, the supernatant was extracted and mixed with water at 1:1, and 10 μL of which was taken for LC-MS/MS detection.

[11] = system: catalytic subunit of PI3K (α-subunit compared to β-subunit); settings: cited from earlier work
[12] = High temperature of 40° C., Day 5
[13] = High temperature of 40° C., Day 30
[14] = High temperature of 60° C., Day 5
[15] = High temperature of 60° C., Day 30

Sequence of PI3Kβ (P42338 whole entry): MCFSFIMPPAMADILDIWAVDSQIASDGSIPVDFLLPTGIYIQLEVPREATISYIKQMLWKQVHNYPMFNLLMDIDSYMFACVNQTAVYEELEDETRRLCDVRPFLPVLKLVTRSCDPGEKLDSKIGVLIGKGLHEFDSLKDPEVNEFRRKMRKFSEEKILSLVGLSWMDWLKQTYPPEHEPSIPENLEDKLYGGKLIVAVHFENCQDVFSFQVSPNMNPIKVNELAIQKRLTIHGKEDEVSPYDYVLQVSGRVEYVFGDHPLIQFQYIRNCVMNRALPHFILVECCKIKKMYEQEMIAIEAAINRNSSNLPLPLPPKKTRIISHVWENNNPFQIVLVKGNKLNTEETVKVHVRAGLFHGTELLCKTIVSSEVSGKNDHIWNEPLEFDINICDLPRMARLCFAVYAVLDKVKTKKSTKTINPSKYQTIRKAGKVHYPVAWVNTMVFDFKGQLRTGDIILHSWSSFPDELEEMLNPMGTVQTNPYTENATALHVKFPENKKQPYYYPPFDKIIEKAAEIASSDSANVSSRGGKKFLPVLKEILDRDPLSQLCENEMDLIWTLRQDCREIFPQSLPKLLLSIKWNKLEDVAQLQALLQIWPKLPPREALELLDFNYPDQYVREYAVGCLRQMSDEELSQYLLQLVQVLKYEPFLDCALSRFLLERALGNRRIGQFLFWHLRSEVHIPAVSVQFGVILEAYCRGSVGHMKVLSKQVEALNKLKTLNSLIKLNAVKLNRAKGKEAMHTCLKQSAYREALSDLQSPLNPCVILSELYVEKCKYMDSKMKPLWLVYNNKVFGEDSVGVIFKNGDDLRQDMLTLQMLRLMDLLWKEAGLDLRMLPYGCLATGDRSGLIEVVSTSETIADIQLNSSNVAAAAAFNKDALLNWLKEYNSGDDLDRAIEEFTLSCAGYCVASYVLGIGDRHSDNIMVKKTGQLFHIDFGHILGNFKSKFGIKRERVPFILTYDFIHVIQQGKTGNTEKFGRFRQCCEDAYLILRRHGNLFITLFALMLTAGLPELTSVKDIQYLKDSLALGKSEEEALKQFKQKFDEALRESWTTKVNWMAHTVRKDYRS
Sequence of PI3Kβ (P27986 whole entry partner): as the sequence (P27986 whole entry partner) above

Compound	Total impurity content of the related material ([5]; Day 0)	Total impurity content of the related material ([5]; High humidity of 75%, Day 5)	Total impurity content of the related material ([5]; High humidity of 75%, Day 30)	Total impurity content of the related material ([5]; High humidity of 92.5%, Day 5)	Total impurity content of the related material ([5]; High humidity of 92.5%, Day 30)	Total impurity content of the related material [5, 12]	Total impurity content of the related material [5, 13]	Total impurity content of the related material [5, 14]	Total impurity content of the related material [5, 15]	XRPD pattern after grinding [6]	Result: crystal form after tabletting [7]	mass gain (DVS) [8]	other results
CC(C)[C@H]1C(=O)N(C2CC2)C(=O)N1c1cn2c(n1)-c1ccc(N3CCC[C@H]3C(N)=O)cc1OCC2 [Compound 1, (S)-1-(2-((S)-3-cyclopropyl-5-isopropyl-2,4-dioxoimidazolidin-1-yl)-5,6-dihydrobenzo[f]imidazo[1,2-d][1,4]oxazepin-9-yl)pyrrolidine-2-carboxamide]													IC50 [1]: > 600 nM; IC50 [2]: > 600 nM; IC50 [3]: ≤ 5 nM; IC50 [4]: 47 nM
CC(C)[C@H]1C(=O)N(C2CC2)C(=O)N1c1cn2c(n1)-c1ccc(N3CCC[C@H]3C(N)=O)cc1OCC2 [Crystal Form B-1, (S)-1-(2-((S)-3-cyclopropyl-5-isopropyl-2,4-dioxoimidazolidin-1-yl)-5,6-dihydrobenzo[f]imidazo[1,2-d][1,4]oxazepin-9-yl)pyrrolidine-2-carboxamide]	0.24%	0.25%	0.29%	0.23%	0.24%	0.26%	0.34%	0.38%	0.43%	remained consistent with the original patterns	Form B-1	1.9%	
CC(C)[C@H]1C(=O)N(C2CC2)C(=O)N1c1cn2c(n1)-c1ccc(N3CCC[C@H]3C(N)=O)cc1OCC2 [Crystal Form C, (S)-1-(2-((S)-3-cyclopropyl-5-isopropyl-2,4-dioxoimidazolidin-1-yl)-5,6-dihydrobenzo[f]imidazo[1,2-d][1,4]oxazepin-9-yl)pyrrolidine-2-carboxamide]	0.07%	0.07%	0.07%	0.07%	0.07%	0.07%	0.10%	0.08%	0.10%	remained consistent with the original patterns	Form C	0.7%	change of testing indexes compared with day 0, long-term test ([9]; 25° C. ± 2° C., RH60% ± 5%, 6 months): no significant change; change of testing indexes compared with day 0, accelerated test ([9]; 40° C. ± 2° C., RH75%, 6 months): no significant change; change in characteristics, content, crystal form and isomer compared with day 0 ([9]; uncovered, high temperature (40° C., 60° C.) or high humidity (75%, 92.5%), 30 days): no significant change; AUC [10]: 36600 ng·h/mL; Cmax [10]: 3700 ng/mL
CC(C)[C@H]1C(=O)N(C2CC2)C(=O)N1c1cn2c(n1)-c1ccc(N3CCC[C@H]3C(N)=O)cc1OCC2 [Crystal Form M, (S)-1-(2-((S)-3-cyclopropyl-5-isopropyl-2,4-dioxoimidazolidin-1-yl)-5,6-dihydrobenzo[f]imidazo[1,2-d][1,4]oxazepin-9-yl)pyrrolidine-2-carboxamide]	0.12%	0.39%	0.61%	0.42%	0.61%	0.55%	0.53%	0.70%	0.64%				
Cc1nc(-c2cn3c(n2)-c2ccc(-c4cnn(C(C)(C)C(N)=O)c4)cc2OCC3)n(C(C)C)n1 [Taselisib]													selectivity for the α-subunit compared to the β-subunit [11]: 31 fold
